Test results: ChEMBL document CHEMBL1201862, “PubChem BioAssay data set” (2004)
Calls of active or inactive are those of the source.

What was measured:
[1] = target: T1, Corticotropin-releasing factor receptor 2/Corticotropin-releasing factor-binding protein (Homo sapiens, UniProt P24387+Q13324); experiment: Dose Response confirmation of uHTS hits for small molecule antagonists of the CRF-binding protein and CRF-R2 receptor complex.; type: functional; conditions: read-out: IC50_Mean
T1 sequence (Q13324 whole entry): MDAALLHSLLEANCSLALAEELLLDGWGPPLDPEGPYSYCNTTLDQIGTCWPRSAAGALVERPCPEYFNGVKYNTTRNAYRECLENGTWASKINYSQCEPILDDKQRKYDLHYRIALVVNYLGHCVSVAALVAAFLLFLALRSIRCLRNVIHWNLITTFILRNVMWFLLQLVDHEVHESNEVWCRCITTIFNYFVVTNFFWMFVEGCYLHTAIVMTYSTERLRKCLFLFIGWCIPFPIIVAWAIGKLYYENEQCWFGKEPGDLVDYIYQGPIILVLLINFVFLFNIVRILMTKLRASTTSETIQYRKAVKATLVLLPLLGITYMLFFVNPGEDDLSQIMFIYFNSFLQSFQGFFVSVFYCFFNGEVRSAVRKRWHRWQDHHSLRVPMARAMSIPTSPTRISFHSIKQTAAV
T1 sequence (P24387 whole entry): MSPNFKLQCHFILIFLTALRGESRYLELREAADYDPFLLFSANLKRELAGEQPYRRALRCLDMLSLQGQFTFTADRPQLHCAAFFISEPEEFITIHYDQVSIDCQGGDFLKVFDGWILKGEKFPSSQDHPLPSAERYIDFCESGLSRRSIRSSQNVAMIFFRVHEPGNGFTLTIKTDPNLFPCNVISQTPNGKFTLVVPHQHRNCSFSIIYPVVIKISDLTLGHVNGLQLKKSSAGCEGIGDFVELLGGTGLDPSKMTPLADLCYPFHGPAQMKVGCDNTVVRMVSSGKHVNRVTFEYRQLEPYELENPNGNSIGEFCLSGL

[2] = target: T1, Corticotropin-releasing factor receptor 2/Corticotropin-releasing factor-binding protein; experiment: activators of CRF receptor 2 with binding protein – uHTS hits, confirmation (AID 602473); type: functional; conditions: read-out: EC50_Mean
[3] = target: T2, Streptokinase A (Streptococcus pyogenes serotype M1, UniProt P10520); experiment: S. pyogenes streptokinase expression inhibitors, potency, dose response, plasminogen activation absorbance, OD405 (AID 1914); type: functional, Streptococcus pyogenes M1 GAS;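 note: secreted streptokinase activity via plasminogen activation per viability signal from cell pellet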
T2 sequence (P10520 whole entry): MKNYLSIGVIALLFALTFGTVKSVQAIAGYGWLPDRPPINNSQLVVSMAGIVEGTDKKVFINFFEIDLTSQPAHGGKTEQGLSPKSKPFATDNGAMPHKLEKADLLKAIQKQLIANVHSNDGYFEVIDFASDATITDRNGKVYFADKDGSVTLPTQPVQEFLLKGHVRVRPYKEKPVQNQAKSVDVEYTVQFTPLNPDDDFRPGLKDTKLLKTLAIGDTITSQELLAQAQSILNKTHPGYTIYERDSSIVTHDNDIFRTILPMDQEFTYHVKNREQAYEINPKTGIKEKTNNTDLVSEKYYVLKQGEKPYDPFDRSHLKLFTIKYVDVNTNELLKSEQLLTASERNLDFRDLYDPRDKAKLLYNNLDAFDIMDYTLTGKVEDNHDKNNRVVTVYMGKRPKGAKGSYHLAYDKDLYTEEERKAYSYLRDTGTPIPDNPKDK

[4] = tested on: Streptococcus; experiment: Group A Streptococcus viability loss, dose response, counter-screen for streptokinase expression inhibitor project, luminescence, BacTiterGlo (AID 1915); type: functional, organism-based;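 note: potency for reduction of bacterial viability or growth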
[5] = tested on: Streptococcus sp. 'group A'; experiment: growth inhibition of control SK(-) GAS strain, dose response, counter-screen for streptokinase expression inhibitor project, luminescence, kanamycin, BacTiterGlo, confirmation (AID 1900); type: functional, organism-based
[6] = target: Cytochrome P450 2C19 (Homo sapiens, UniProt P33261); experiment: Cytochrome panel assay with activity outcomes. Panel member name: p450-cyp2c19 Compounds with AC50 equal or less than 10 uM are considered active; type: functional
[7] = target: Cytochrome P450 2D6 (Homo sapiens, UniProt P10635)
[8] = cytotoxicity toward NIH3T3 fibroblasts, dose response, counter-screen, cell-based, ATP luminescence, mouse fibroblasts (AID 2010); type: functional;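 note: cells exposed to compound for about 90 hours before reading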
[9] = inhibitors of intracellular T. cruzi replication, confirmation, NIH3T3 host cells, beta-gal luminescence (AID 2044); type: functional, cell-based;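 note: intracellular parasites grown in NIH/3T3 mouse fibroblasts as host cells; luminescent beta-galactosidase reporter signal from transgenic T. cruzi replicating inside host cells; inhibitors lower the luminescence signal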

Sequence of Cytochrome P450 2C19 (P33261 whole entry): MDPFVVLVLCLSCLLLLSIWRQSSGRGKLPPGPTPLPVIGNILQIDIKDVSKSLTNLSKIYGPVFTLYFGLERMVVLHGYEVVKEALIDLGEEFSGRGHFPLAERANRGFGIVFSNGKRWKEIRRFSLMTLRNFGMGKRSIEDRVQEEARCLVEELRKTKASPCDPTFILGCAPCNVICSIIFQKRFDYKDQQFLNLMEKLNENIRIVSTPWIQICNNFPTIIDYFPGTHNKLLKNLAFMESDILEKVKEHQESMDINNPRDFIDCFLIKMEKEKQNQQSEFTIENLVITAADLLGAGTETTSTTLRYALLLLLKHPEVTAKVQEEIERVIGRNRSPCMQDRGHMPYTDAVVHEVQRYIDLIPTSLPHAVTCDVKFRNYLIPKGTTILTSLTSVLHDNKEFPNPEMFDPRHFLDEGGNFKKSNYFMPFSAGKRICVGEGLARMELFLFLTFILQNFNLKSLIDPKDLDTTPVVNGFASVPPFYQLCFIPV
Sequence of Cytochrome P450 2D6 (P10635 whole entry): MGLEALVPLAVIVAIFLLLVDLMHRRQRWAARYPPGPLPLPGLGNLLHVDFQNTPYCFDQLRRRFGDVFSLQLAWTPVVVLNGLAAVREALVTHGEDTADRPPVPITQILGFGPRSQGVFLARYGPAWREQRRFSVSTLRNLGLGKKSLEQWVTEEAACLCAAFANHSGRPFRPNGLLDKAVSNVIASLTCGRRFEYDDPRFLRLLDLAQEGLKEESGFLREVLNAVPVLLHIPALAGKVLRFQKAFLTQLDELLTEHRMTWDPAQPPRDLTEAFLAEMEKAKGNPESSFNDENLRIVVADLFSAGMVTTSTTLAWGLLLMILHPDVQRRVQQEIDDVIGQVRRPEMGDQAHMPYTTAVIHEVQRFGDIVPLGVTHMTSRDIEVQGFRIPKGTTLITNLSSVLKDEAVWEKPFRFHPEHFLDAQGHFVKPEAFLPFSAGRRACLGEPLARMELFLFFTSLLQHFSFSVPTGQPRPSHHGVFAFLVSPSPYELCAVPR

**Q.** Which IC50 [1] does the source give for `C=CCOC(=O)C(C#N)c1nc2ccccc2nc1N1CCN(c2ccccc2OCC)CC1` (stereo unspecified) here?
**A.** > 47.1 µM (inactive)

**Q.** And the EC50 [2]?
**A.** > 53 µM (inactive)

**Q.** Which IC50 [1] does the source give for `Fc1ccccc1CNC(=S)Nc1ccc(Cl)cc1` here?
**A.** 5.53 µM (active)

**Q.** And the EC50 [2]?
**A.** > 53 µM (inactive)

**Q.** With `CC1CCN(C(=O)c2ccc3c(c2)NC(=O)/C(=C/c2ccccc2)S3)CC1` as the compound, how does the EC50 [3] read?
**A.** > 150 µM (not active)

**Q.** What about the EC50 [4] of the same compound?
**A.** 6.87 µM (active)

**Q.** What about the EC50 [5] of the same compound?
**A.** 2.64 µM (active)

**Q.** With `COc1ccc(/C=C/c2c([N+](=O)[O-])c(=O)n(C)c(=O)n2C)cc1O` as the compound, how does the IC50 [1] read?
**A.** > 47.1 µM (inactive)

**Q.** What about the EC50 [2] of the same compound?
**A.** > 53 µM (inactive)

**Q.** For `O=C1C=C(NCCN2CCOCC2)CC(c2ccccc2)C1` (stereo unspecified), which AC50 ([6]; read-out: AC50) is on record?
**A.** 39.8 µM (inconclusive)

**Q.** With `CC(Oc1ccc(Cl)cc1)C(=O)Nc1ccccc1N1CCOCC1` (stereo unspecified) as the compound, how does the EC50 [2] read?
**A.** 7.37 µM (active)

**Q.** Which AC50 [7] does the source give for `Cc1cccc(CNc2ncncc2-c2cccnc2)c1` here?
**A.** 25.1 µM (inconclusive)

**Q.** For `CC(C)CN(CC(C)C)S(=O)(=O)N1CCC(C(=O)NCc2ccc(F)cc2)CC1`, which AC50 ([6]; read-out: AC50) is on record?
**A.** 25.1 µM (inconclusive)

**Q.** Which EC50 [3] does the source give for `c1ccc(Oc2nc(-c3ccccn3)nc3ccccc23)cc1` here?
**A.** > 150 µM (not active)

**Q.** What about the EC50 [4] of the same compound?
**A.** 22.5 µM (active)

**Q.** And the EC50 [5]?
**A.** 44.1 µM (active)

**Q.** What about the EC50 [8] of the same compound?
**A.** > 60 µM (not active)

**Q.** What about the EC50 [9] of the same compound?
**A.** 3.8 µM (active)

**Q.** Which EC50 [8] does the source give for `COc1ccc(-n2nc(C)c3c(O)c4c(nc32)CCCC4)cc1` here?
**A.** > 60 µM (not active)

**Q.** And the EC50 [9]?
**A.** 0.21 µM (active)

**Q.** Which EC50 [8] does the source give for `O=C(Nc1ccn(Cc2c(F)c(F)cc(F)c2F)n1)c1ccc(COc2ccccc2Cl)cc1` here?
**A.** > 60 µM (inconclusive)

**Q.** And the EC50 [9]?
**A.** 0.867 µM (active)

**Q.** With `Cc1cc2c(n1-c1ccc(Br)cc1)CC(C)(C)CC2=O` as the compound, how does the EC50 [8] read?
**A.** > 60 µM (not active)

**Q.** What about the EC50 [9] of the same compound?
**A.** 2.05 µM (active)

**Q.** Which results are given for `O=C(Nc1cccc(F)c1)NC1CCN(Cc2ccccc2)CC1`?
**A.** EC50 [8]: > 60 µM (not active); EC50 [9]: 0.736 µM (active)

**Q.** Which EC50 [8] does the source give for `CC(CCc1ccccc1)NC(=O)c1ccc(NC(=O)c2cccc(Br)c2)cc1` (stereo unspecified) here?
**A.** > 60 µM (not active)

**Q.** What about the EC50 [9] of the same compound?
**A.** 2.02 µM (active)

**Q.** With `CC(=O)Oc1ccccc1C1=NN(C(=O)/C=C/c2ccccc2)C(c2ccccc2)C1` (stereo unspecified) as the compound, how does the EC50 [3] read?
**A.** > 150 µM (not active)

**Q.** And the EC50 [4]?
**A.** > 150 µM (not active)

**Q.** And the EC50 [5]?
**A.** 17.1 µM (active)

**Q.** With `O=C(O)c1ccc(N=Nc2c(O)[nH]c3ccc(Br)cc23)cc1` as the compound, how does the EC50 [4] read?
**A.** 8.12 µM (active)

**Q.** What about the EC50 [5] of the same compound?
**A.** 4.19 µM (active)

**Q.** Which AC50 [6] does the source give for `Cc1cc(=O)oc(C)c1C(=O)NCc1ccccn1` here?
**A.** inconclusive

**Q.** With `c1ccc(Cc2noc(CN3CCN(CCOc4ccccc4)CC3)n2)cc1` as the compound, how does the EC50 [8] read?
**A.** > 60 µM (not active)

**Q.** What about the EC50 [9] of the same compound?
**A.** 1.09 µM (active)

**Q.** With `CCOC(=O)c1ccc(-c2ccc3c(=O)c4ccccc4n(C)c3c2)cc1F` as the compound, how does the EC50 [3] read?
**A.** > 150 µM (not active)

**Q.** What about the EC50 [4] of the same compound?
**A.** > 150 µM (not active)

**Q.** And the EC50 [5]?
**A.** 3.46 µM (active)

**Q.** Which AC50 [7] does the source give for `Cc1ccc(S(=O)(=O)Nc2cc(O)nc3c2CCC3)cc1` here?
**A.** 2.51 µM (inconclusive)

**Q.** With `Cc1cc(C)c2nc(N3C(=O)C(O)=C(C(=O)c4ccco4)C3c3ccco3)sc2c1` (stereo unspecified) as the compound, how does the EC50 [4] read?
**A.** 5.86 µM (active)

**Q.** What about the EC50 [5] of the same compound?
**A.** 2.52 µM (active)

**Q.** For `CC(=O)NC(=S)Nc1ccc(S(=O)(=O)N(C)Cc2ccccc2)cc1`, which EC50 [8] is on record?
**A.** > 30 µM (not active)

**Q.** And the EC50 [9]?
**A.** 1.22 µM (active)

**Q.** For `Cc1cc(C)c2c(n1)sc1c(=O)n(CC(=O)c3ccccc3)cnc12`, which EC50 [3] is on record?
**A.** > 150 µM (not active)

**Q.** What about the EC50 [4] of the same compound?
**A.** 5.59 µM (active)

**Q.** And the EC50 [5]?
**A.** 0.95 µM (active)

**Q.** Which EC50 [8] does the source give for `Cc1ccc2cc3cc(C(=O)N(CC(=O)NC4CCCC4)c4cccc(C)c4C)sc3nc2c1` here?
**A.** > 30 µM (not active)

**Q.** What about the EC50 [9] of the same compound?
**A.** 1.61 µM (active)

**Q.** For `O=C(NCc1ccc(OC(F)(F)F)cc1)c1cccc2c1C(=O)c1ccc(N3CCCC3)cc1S2(=O)=O`, which EC50 [2] is on record?
**A.** 11.8 µM (active)

**Q.** For `Cc1cc2nc(/C(C#N)=C\c3ccc(-c4ccccc4C(=O)O)o3)[nH]c2cc1C`, which EC50 [2] is on record?
**A.** 5.8 µM (active)
